From PMC9000413, “Isolation and Structural Elucidation of Compounds from Pleiocarpa bicarpellata and Their In Vitro Antiprotozoal Activity” (Molecules, 2022)
Read-outs that look alike come from different tables or passages of the source.

Key:
P. falciparum [1] = assay: In vitro antiplasmodial assay (P. falciparum NF54, intraerythrocytic); details: for IC50: Plasmodium falciparum, NF54, read-out: IC50 P. falciparum; for selectivity ratio: rat
Description: The in vitro activity was assessed on T. b. rhodesiense (STIB900, bloodstream forms), T. cruzi (Tulahuen C2C4, intracellular amastigotes), L. donovani (MHOM-ET-67/L82, axenically grown amastigotes), P. falciparum (NF54, intraerythrocytic), and L6 cells (rat skeletal myoblasts) as previously described. Results are expressed in µg/mL for extracts and in µM for pure compounds.

P. falciparum [2] = system: P. falciparum; parameters: method as in PMID 11378289; details: alkaloids from the methanol root extract of P. mutica; cited from earlier work
L. donovani = assay: In vitro antileishmanial assay (L. donovani MHOM-ET-67/L82, axenically grown amastigotes); type: cell-based, Leishmania donovani; details: for IC50: Leishmania donovani, pure compounds and reference drug, mean of two independent assays, axenically grown amastigotes
Description: (§1) The in vitro activity was assessed on T. b. rhodesiense (STIB900, bloodstream forms), T. cruzi (Tulahuen C2C4, intracellular amastigotes), L. donovani (MHOM-ET-67/L82, axenically grown amastigotes), P. falciparum (NF54, intraerythrocytic), and L6 cells (rat skeletal myoblasts) as previously described [42].

[3] = Cytotoxicity against rat skeletal myoblast L6 cells; type: cell-based
Description: as §1

P. berghei = system: P. berghei; parameters: method as in PMID 11378289; details: in vivo mouse model, daily doses of 25 mg/kg/day, compared to untreated control mice; cited from earlier work
T. cruzi [4] = system: T. cruzi; parameters: method as in PMID 25233577; details: cited from earlier work
L. infantum = system: L. infantum; parameters: method as in PMID 25233577; details: cited from earlier work
T. b. rhodesiense = assay: In vitro antitrypanosomal assay (T. b. rhodesiense STIB900, bloodstream forms); type: cell-based; details: Trypanosoma brucei
Description: as §1

T. cruzi [5] = assay: In vitro antitrypanosomal assay (T. cruzi Tulahuen C2C4, intracellular amastigotes); type: cell-based; details: Trypanosoma cruzi
Description: as §1

T. cruzi [6] = system: T. cruzi; parameters: method as in PMID 26755152; details: previous study; cited from earlier work
[7] = Selectivity index (SI) = IC50 cytotoxicity/IC50 against parasite, L6 cells vs P. falciparum

## CCN(CC)CCCC(C)Nc1ccnc2cc(Cl)ccc12 (stereo not shown) [Chloroquine, reference compound]
P. falciparum [1]
  IC50: 0.006 µM

## COC(=O)[C@@H]1CC23CCCN4CC[C@@]5(c6ccccc6NC15CC2)[C@@H]43 (stereo partly shown) [Compound 2, kopsinine]
P. falciparum [2]
  IC50: > 200 µM

## CC=C1C[N+]2(C)C3CC1C(CO)(C(=O)OC)C2Cc1c3[nH]c2ccccc12 (stereo not shown) [Compound 6, macusine A]
L. donovani
  IC50: > 50 µM
P. falciparum [1]
  IC50: 26.9 µM
P. falciparum [1]; [7]
  selectivity ratio: 10.1
[3]; L6 cells (rat skeletal myoblasts), pure compounds and reference drug, rat skeletal myoblast L6 cells, mean of two independent assays, read-out: IC50 Cytotoxicity
  IC50: 272 µM

## COC(=O)[C@@H]1CC23CCCN4CC[C@@]5(c6ccccc6N(C(=O)OC)C15CC2)[C@@H]43 (stereo partly shown) [Compound 11, pleiocarpine]
L. donovani
  IC50: > 50 µM
P. falciparum [1]
  IC50: 26.6 µM
  selectivity ratio: 5.8
[3]; rat
  IC50: 156 µM
P. falciparum [2]
  IC50: > 200 µM
P. berghei
  reduced parasitemia: 28.5%

## CC[C@H]1[C@@H]2CCN3CC[C@@]4(C(=C2C(=O)OC)Nc2ccccc24)[C@@H]13 [Compound 13, tubotaiwine]
L. donovani
  IC50: > 50 µM
P. falciparum [1]; L6 cells vs P. falciparum
  Selectivity index (SI) = IC50 cytotoxicity/IC50 against parasite: 23.2
P. falciparum [1]
  IC50: 8.5 µM
P. falciparum [1]; [7]
  selectivity ratio: 23.4
[3]; rat
  IC50: 197 µM
T. cruzi [4]
  activity against T. cruzi: no activity
L. infantum
  IC50: 17.3 µM

## CCC1C2CCN3CCC4(C(=C2C(=O)OC)Nc2ccccc24)C13 [Compound 15, methyl (7S,15R,20R,21S)-20-ethyl-5,6,14,15,21-hexahydro-15,21-ethanopyrrolo[5,21-d]carbazole-16-carboxylate-methane]
L. donovani
  IC50: > 50 µM
P. falciparum [1]
  IC50: > 50 µM
T. b. rhodesiense
  IC50: > 50 µM
T. cruzi [5]
  IC50: > 50 µM

## C=C[C@H]1[C@H](O[C@@H]2O[C@H](CO)[C@@H](O)[C@H](O)[C@H]2O)OC=C(C(=O)OC)[C@H]1CC(=O)O [Compound 16, secoxyloganin]
L. donovani
  IC50: 25.3 µM
L. donovani; rat, L6 cells vs L. donovani, read-out: Selectivity index (SI) = IC50 cytotoxicity/IC50 against parasite
  selectivity ratio: 11.6
P. falciparum [1]
  IC50: > 50 µM
[3]; rat
  IC50: 294 µM
T. cruzi [6]
  IC50: > 150 µM

## CCCCCCCCCCCCCCCCOP(=O)([O-])OCC[N+](C)(C)C [Miltefosine, reference compound]
L. donovani
  IC50: 0.554 µM

## COc1cc([C@@H]2c3cc4c(cc3[C@H](O)[C@H]3COC(=O)[C@H]23)OCO4)cc(OC)c1OC [Podophyllotoxin, reference compound]
[3]; pure compounds and reference drug, rat skeletal myoblast L6 cells, mean of two independent assays, read-out: IC50 Cytotoxicity
  IC50: 0.027 µM

## C/C=C1/CN2CC[C@@]34CN5c6c(cccc6[C@@]67CCN8CCC[C@@]9(CC[C@@]56[C@@H]9C)[C@H]87)[C@@]35[C@@H]2C[C@@H]1[C@@H](C(=O)OC)N5c1ccccc14 [pleiomutinine, reference compound]
P. falciparum [2]
  IC50: 5 µM
